Data as given in US20110201023A1, “MANNOSE 6-PHOSPHATE-BINDING ANTIBODIES AND THEIR USES” (UNIVERSITATSKLINKUM HAMBURGEPPENDORF, priority 2008, published 2011).

Columns and labels:
scFv M6P-1 = assay: ELISA inhibition study: binding of scFv M6P-1 to immobilized PMP-BSA; design: species or system rabbit; settings: for IC50: scFv 0.6 μg/ml preincubated 1 h at 37° C. with 0.01 to 100 mM inhibitor, 45 pmol/cup PMP-BSA, read-out: 50% inhibition (IC50 value) of scFv M6P-1 binding to PMP-BSA; for inhibition of the binding of scFv M6P-1 to PMP-BSA: even at high concentrations (0.01 to 100 mM tested)
Description: ELISA was performed according to the protocol published in Phage-Display: A Laboratory Manual, Cold Spring Harbor Laboratory Press, New York (2001), protocol 19.8, pages 19.29-19.31. For ELISA using monoclonal phage or soluble scFv, PMP-BSA was immobilized by addition of 2.25 pmol neoglycoconjugate (45 pmol PMP ligand, solution in 50 mM carbonate buffer, pH 9.2) to each cup of the ELISA plates (MaxiSorp, Nunc) and overnight incubation at 4° C. Phages were detected using an anti-M13 monoclonal antibody (mAb) HRP-conjugate (GE Healthcare, Freiburg, Germany) and diammonium 2,2′-azino-bis(3-ethylbenzothiazoline-6-sulfonate (AzBTS-(NH4)2, Sigma-Aldrich) as substrate. For scFv-ELISA against PMP-BSA, purified scFv was added at a starting concentration of 5 μg/ml. Bound scFv was detected by incubation with anti-c-myc mAb (gift from Dr. C. R. MacKenzie, NRC of Canada, Ottawa, Canada) and HRP-conjugated goat-anti-mouse IgG H+L (Dianova, Hamburg, Germany). For ELISA inhibition studies, 45 pmoles PMP-BSA were immobilized on ELISA plates. Monomeric scFv M6P-1 was freshly prepared by gelfiltration (see above). Antibody fragment scFv (0.6 μg/ml final concentration) was preincubated for 1 h at 37° C. with or without 0.01 to 100 mM of mannose, glucose, glucose-6-phosphate (Glc6P), Fru1P, or Man6P. 50 μl scFv M6P-1 were added to PMP-BSA (45 pmol/cup ligand concentration). Bound scFv M6P-1 was quantified after incubation (i) with an antibody directed against the c-myc tag of the antibody scFv M6P-1 and (ii) a HRP-conjugated goat-anti-mouse H/L antibody. The […] reaction was measured spectrophotometrically at OD405. All data were measured in quadruplicates and the standard deviation from the mean is indicated. The data were analyzed using Origin version 6.0 software (MicroCal, Northampton, USA) and fitted to a 4 parameter logistic function. The data obtained for inhibition by Man6P and Fru1P were globally fitted to the four replicate data sets, each separately.

[1] = system: scFv M6P-1 conjugated beads / [125I]ASA (human arylsulfatase A); assay: Immunoprecipitation of [125I]ASA with scFv M6P-1 conjugated beads; format: binding
Description: Monomeric or dimeric scFv M6P-1 (about 1 mg/ml in PBS, pH 7.2) isolated by gel filtration (see above) was chemically immobilized to AminoLink Plus Coupling gel beads (Pierce, USA) following the suppliers instructions (1 mg scFv M6P-1 was coupled to 2 ml of settled beads). Human arylsulfatase A (ASA)(kindly provided by Dr. […]; Institute for Biochemistry, University of Bielefeld, Germany) was purified by affinity chromatography from media of BHK cells which overexpress the enzyme as described by Sommerlade et al. (1994) Biochem. J. 297, 123-130 and iodinated with IODO-GEN (Pierce) according to the manufacturer's instructions yielding [^125I]ASA with a specific activity of 2 μCi/μg. [^125I]ASA (400,000 cpm) was incubated with 50 μl scFv M6P-1 conjugated beads in 10 mM phosphate buffered saline pH 7.4 containing 0.05% Triton X-100 in a final volume of 0.5 ml in the absence or presence of increasing concentrations of Man6P for 10 h at 4° C. Subsequently, the beads were spun down at 1,200×g for 20 sec, and the supernatant was removed. The beads were washed three times with ice-cold binding buffer, twice with 1 mM phosphate buffered saline pH 7.4, and solubilized in SDS sample buffer. After removal of the beads, the supernatants were separated by SDS-PAGE (10% acrylamide), and the [^125I]ASA was visualized by autoradiography using Kodak films. The intensity of the [^125I]-labeled polypeptides was evaluated by densitometry. Alternatively, the [^125I]-labeled polypeptides were excised from the dried gel and counted in a γ-counter (Wizard 1470, Wallac, Turku, Finland).

[2] = Isothermal titration microcalorimetry; settings: dimeric scFv M6P-1 in PBS pH 7.2; 10 mM Man6P injected; read-out: Kd for the binding of scFv M6P-1 to Man6P
Description: The comparison of IC50 values allows the ranking of different ligands according to their relative affinities, however, the absolute affinities in terms of Kd can not be obtained. Therefore, isothermal titration microcalorimetry measurements using Man6P as a ligand were performed. Purified dimeric scFv M6P-1 obtained after gel filtration (both a monomer and a dimer fraction are obtained) was concentrated in Centriprep YM-10 (Millipore) to a final concentration of 2.7 mg/ml in PBS, pH 7.2 and dialysed for 1 h at 20° C. against 500 ml of PBS. The same dialysis buffer was used for preparation of a 10 mM solution of Man6P (Na^+ salt, Sigma-Aldrich). Microcalorimetric experiments were performed on an MCS isothermal titration calorimeter (Microcal Inc., Northampton, Mass., USA). The microcalorimeter cell was filled with the antibody solution (volume=1.5 ml) and Man6P in dialysis buffer loaded into the syringe of the microcalorimeter. Both solutions were thoroughly degassed prior to loading. After temperature equilibration, the ligand was injected into the cell in 4 μl portions and the evolved heat measured with the first injection (1 μl) not considered for data analysis. […] Dissociation constants were determined using the MicroCal Origin version 2.9 analysis software and non-linear least squares curve fitting (1 set of binding sites).

PMP-BSA = assay: Phage ELISA against PMP-BSA; format: binding; settings: 1:3 (v/v) dilutions of phage
Description: The reactivity of the enriched polyclonal phage was tested in an ELISA checkerboard titration against different concentrations of PMP-BSA (3-100 pmol/cup calculated for PMP concentration). At 50 pmol/cup reactivity of the polyclonal phage was observed selectively for PMP-BSA but not for BSA. BstOI (Promega GmbH, Germany) restriction digest of 20 colony PCR products indicated the presence of 7 different clones (4× type A, 10× type B, 2× type C and 1× types D-G). Twelve colonies representing the different types of sequences (5× type B, 2× type A, 1× each of types C-G) were selected for phage production and 1:3 (v/v) dilutions of phage were tested in ELISA against PMP-BSA. […]
ELISA was performed according to the protocol published in Phage-Display: A Laboratory Manual, Cold Spring Harbor Laboratory Press, New York (2001), protocol 19.8, pages 19.29-19.31. […] Phages were detected using an anti-M13 monoclonal antibody (mAb) HRP-conjugate (GE Healthcare, Freiburg, Germany) and diammonium 2,2′-azino-bis(3-ethylbenzothiazoline-6-sulfonate (AzBTS-(NH4)2, Sigma-Aldrich) as substrate. For scFv-ELISA against PMP-BSA, purified scFv was added at a starting concentration of 5 μg/ml. Bound scFv was detected by incubation with anti-c-myc mAb (gift from Dr. C. R. MacKenzie, NRC of Canada, Ottawa, Canada) and HRP-conjugated goat-anti-mouse IgG H+L (Dianova, Hamburg, Germany).

## O=P(O)(O)OC[C@@]1(O)OC[C@@H](O)[C@@H](O)[C@@H]1O [Fru1P, β-D-fructopyranose-1-phosphate]
scFv M6P-1
  IC50: 1100 µM

## O=C[C@H](O)[C@@H](O)[C@H](O)[C@H](O)COP(=O)(O)O [Glc6P, glucose 6-phosphate]
scFv M6P-1
  inhibition of the binding of scFv M6P-1 to PMP-BSA: Neither
[1]; 5 mM
  effect on binding of [125I]-ASA to the antibody beads: no effect

## O=C[C@@H](O)[C@@H](O)[C@H](O)[C@H](O)COP(=O)(O)O [Man6P, mannose 6-phosphate]
scFv M6P-1
  IC50: 2300 µM
[1]; Man6P in a concentration of more than 2.5 mM
  inhibition of binding of [125I]-ASA to the antibody beads: completely inhibited
[1]; calculated from densitometric evaluation of autoradiographs or radioactivity in excised bands
  Ki: 100 µM

## O=C[C@@H](O)[C@@H](O)[C@H](O)[C@H](O)CO [mannose]
scFv M6P-1
  inhibition of the binding of scFv M6P-1 to PMP-BSA: Neither

B1: scFv M6P-1: recombinant rabbit single-chain antibody fragment which specifically binds mannose 6-phosphate; VL SEQ ID NO:7, VH SEQ ID NO:8 (antibody, listed as Oryctolagus cuniculus, V domains shown)
VH: QSVKESEGDLVKPGASLTLTCKASGFDFTWYTMNWVRQAPGKGLEWIACIGAGVYGSNYYASWAKGRFTISKASSTTVTLQMTSLTVADTATYFCARDGINGGYDIWGPGTLVTVSS
VL: ELVMTQTESPVSAAVGGTVTIKCQSSQSVYNNRLAWYQQKPGQRPKLLIYSASTLASGVPSRFKGSGSGTQFTLTISDLEWGDAATYYCHGGYRSNDDRYAFSGGTELEIL
modifications: scFv linker not given
[1]; 10 h at 4° C., absence of Man6P
  total offered [125I]-ASA bound specifically to the scFv M6P-1 conjugated beads: 20-25%
[2]
  Kd: 28 µM
PMP-BSA
  reactivity of monoclonal phage in ELISA against PMP-BSA: reacted
